Measured values as given in patent US6664096B2, “Methods for improved diagnosis and treatment of mycobacterial infections” (priority 2000, dated 2003).
Where two headings read alike, the source gives them in different places.

Tests used:
Format in all cases: cell-based
[1] = tested on: M. tuberculosis H37Ra; experiment: Resuscitation of 6 month old culture by phospholipids, CFU on 7H11 agar; details: for CFU/ml: 4 μg/ml, 6 month old cells, 7H11 agar, 3 weeks
Description: M. tuberculosis H37Ra cultures were grown in 7H9 medium containing Tween 80 (0.05%) and ADC (albumin-dextrose-catalase) enrichment at 37° C. for various periods of time as standing batch cultures. Cultures of varying age up to one year were used for the resuscitation experiments. Resuscitation of dormant M. tuberculosis by phosphatidylserine was performed as follows. A 6 month old M. tuberculosis H37Ra culture was washed and resuspended in 7H9 medium followed by plating at different dilutions on 7H11 agar plates containing 4 μg/ml phosphatidylserine (derived from bovine brain, containing a mixture of two unknown fatty acyl groups, Sigma Chemical Co.) or phosphatidylserine dioleoyl. The plates were incubated at 37° C. for 3 weeks when the CFU was determined. Data represent average of duplicate samples.
To confirm that a phospholipid was responsible for activity, we first tested commercially available phosphatidyl-L-serine and a dioleoyl phosphatidyl-L-serine, both of which are precursor of phosphatidylethanolamine and phosphatidylcholine, for resuscitation activity for the 6 month old M. tuberculosis H37Ra cells. Both compounds had significant resuscitation activity over medium control as judged by colony forming units (CFU) assay. Phosphatidyl-L-serine and a dioleoyl phosphatidyl-L-serine at 4 μg/ml gave 1.2×10^7, 2×10^6 CFU/ml, respectively, whereas the medium control produced 3×10^4 CFU/ml.

[2] = tested on: M. tuberculosis H37Ra; details: 4 week old culture
[3] = tested on: M. tuberculosis H37Ra; details: 7-month-old culture
[4] = tested on: M. tuberculosis H37Ra; details: 7-month-old culture; remark: listed apart in the source
[5] = tested on: M. tuberculosis H37Ra; details: 7-month-old culture; remark: listed apart in the source
[6] = tested on: M. tuberculosis H37Ra; experiment: Growth of small inocula of fresh 4-week-old culture with phosphatidylserine; details: 5 μg/ml in Sauton's medium, 20 days
Description: It is well known that to initiate growth of M. tuberculosis in liquid culture a large inoculum is required (Dubos and Davis, 1946). In a separate experiment involving a fresh 4-week-old M. tuberculosis H37Ra culture, the culture was serially diluted into Sauton's medium (1 ml) alone or into medium containing 5 μg/ml phosphatidylserine at 10^−2, 10^−3, 10^−4, 10^−5, 10^−6, 10^−7 dilutions. The cultures were incubated at 37° C. for 20 days when the visible growth was assessed and the cultures were plated on 7H11 plates, which were incubated at 37° C. for 3 weeks. Phosphatidyl-L-serine allowed small inocula (10^−7 dilution) to form visible growth and CFU on plates, whereas the control culture grew only at 10^−5 dilution.

Molecule	resuscitation and growth enhancing activity ([1]; compared with phosphatidylserine)	CFU values ([2]; day 3) [mL⁻¹]	CFU values ([2]; day 5) [mL⁻¹]	CFU values ([2]; day 8) [mL⁻¹]	CFU values ([2]; day 11) [mL⁻¹]	CFU data ([3]; day 5)	CFU data ([3]; day 10)	MTT data (OD readings at 570 nm) ([4]; day 0) [OD]	MTT data (OD readings at 570 nm) ([4]; day 5) [OD]	MTT data (OD readings at 570 nm) ([4]; day 10) [OD]	FDA-EB viability staining (% of viable green cells) ([5]; day 0) [%]	FDA-EB viability staining (% of viable green cells) ([5]; day 5) [%]	FDA-EB viability staining (% of viable green cells) ([5]; day 10) [%]	CFU/ml [1]	small inocula (dilution) forming visible growth and CFU on plates [6]
phosphatidylglycerol-oleoyl-palmitoyl [reference compound]	did not have significant activity	–	–	–	–	–	–	–	–	–	–	–	–	–	–
NH2-LNATDPGAAAQFNASPVAQSYLRN-OH (H-LNATDPGAAAQFNASPVAQSYLRN-OH; listed as Mycobacterium tuberculosis) [Peptide P2, residues 48-71]	–	225000	500000	1.5e+07	7.5e+07	100 × 10^5 CFU/ml	200 × 10^5 CFU/ml	0.2609	0.6269	1.1567	1	2	27.5	–	–
NH2-LRNFLAAPPPQRAAMAAQLQAV-OH (H-LRNFLAAPPPQRAAMAAQLQAV-OH; listed as Mycobacterium tuberculosis) [Peptide P3, residues 69-90]	–	450000	4.5e+07	1.5e+08	1.5e+08	40 × 10^5 CFU/ml	800 × 10^5 CFU/ml	0.3147	0.6219	1.1917	2	4.5	42.5	–	–
NH2-AQLQAVPGAAQYIGLVESVAGSCNNY-OH (H-AQLQAVPGAAQYIGLVESVAGSCNNY-OH; listed as Mycobacterium tuberculosis) [Peptide P4, residues 85-110]	–	2e+06	3.25e+06	7.5e+07	2e+08	50 × 10^5 CFU/ml	900 × 10^5 CFU/ml	0.2248	0.6287	1.4131	1	11.5	50	–	–
phosphatidyl-L-serine	–	–	–	–	–	–	–	–	–	–	–	–	–	1.2×10^7 CFU/ml	10^−7
CCCCCCCC/C=C\CCCCCCCC(=O)OC[C@H](COP(=O)(O)OC[C@H](N)C(=O)O)OC(=O)CCCCCCC/C=C\CCCCCCCC [dioleoyl phosphatidyl-L-serine]	–	–	–	–	–	–	–	–	–	–	–	–	–	2×10^6 CFU/ml	–
